US12209092B2, “Inhibitors of GLI1 as therapeutic agents” (NEW YORK UNIVERSITY, priority 2018, dated 2025)
Read-outs that look alike come from different tables or passages of the source.

System: Gli1-mediated transcription
Assay: Gli1-mediated transcriptional luciferase reporter assay
Type: cell-based
Settings: Shh-LIGHT2 cells, antagonist mode, purmorphamine 1.5 μM stimulation, 24 h
Experimental: Gli1-mediated transcriptional luciferase reporter assay was performed using Shh-LIGHT2 cells in order to evaluate the effects on activation and inhibition of Gli1-mediated transcription by the compounds of the disclosure. Brief assay procedure is provided below. […] Shh-LIGHT2 cells were harvested from about 80% confluent 10-cm dish using 0.25% Trypsin-EDTA solution. Medium was removed, and cells were washed with 5 mL DPBS and aspirated. Then, 1 mL 0.25% Trypsin-EDTA solution was added to a 10-cm dish. The dish was placed in the incubator for 1-3 minutes, or until cells have detached. 3 mL of cell growth medium (DMEM, 10% FBS, 1% PenStrep, 1% sodium pyruvate, and 1% GlutaMax) was added to the 10-cm dish, and the contents were transferred to a conical tube. […] The cell assay plate was removed from incubator after cells reached confluency. The culture medium was then manually removed from the cell plates, and the plates were centrifuged at 200 rpm for 30 seconds. […] After 30 min incubation of antagonist, cells were stimulated with agonist (purmorphamine, 5 μL, 1.5 μM final), then incubate for 24 h at 37° C./5% CO2. […] Luciferase assay: After incubation, the cell assay plate was allowed to acclimate to room temperature. Then, 20 μL of Duo-Glo® Luciferase Reagent (Promega) was added to each well of cell assay plate. The plate was briefly spun down, mixed, and incubated for 30 minutes at room temperature. The cell plate was read using luminometer for firefly luminescence activity. Then, 20 μL of Duo-Glo® Step&Glo® Reagent (Promega) was added to each well of cell assay plate. The plate was briefly spun down, mixed, and incubated for 30 minutes at room temperature. The cell plate was read using luminometer for Renilla luminescence activity. Ratio of firefly: Renilla luminescence was calculated for each well. The compound well ratio was normalized to the ratio from a control well.

[1] = firefly luminescence, read-out: Gli1 IC50 firefly
[2] = ratio of firefly:Renilla luminescence, read-out: Gli1 IC50 firefly:Renilla ratio

SMILES | IC50 [1] | IC50 [2]
COc1ccc(-c2nc3c([nH]2)CN(C2CCc4ccc(Cl)cc4C2)CC3)c(Cl)c1 (stereo not drawn) [Example 23, 5-(7-chloro-1,2,3,4-tetrahydronaphthalen-2-yl)-2-(2-chloro-4-methoxyphenyl)-4,5,6,7-tetrahydro-3H-imidazo[4,5-c]pyridine] | < 0.1 µM | < 0.1 µM
COc1ccc(Cl)c(-c2nc3c([nH]2)CN(C2CCc4ccc(Cl)cc4C2)CC3)c1 (stereo not drawn) [Example 24, 5-(7-chloro-1,2,3,4-tetrahydronaphthalen-2-yl)-2-(2-chloro-5-methoxyphenyl)-4,5,6,7-tetrahydro-3H-imidazo[4,5-c]pyridine] | 0.1 to 0.49 µM | < 0.1 µM
Clc1cc(Cl)c2c(c1)CCC(N1CCc3nc(-c4ccccc4Cl)[nH]c3C1)C2 (stereo not drawn) [Example 25, 2-(2-chlorophenyl)-5-(6,8-dichloro-1,2,3,4-tetrahydronaphthalen-2-yl)-4,5,6,7-tetrahydro-3H-imidazo[4,5-c]pyridine] | 1 to 50 µM | 1 to 50 µM
Clc1ccccc1-c1nc2c([nH]1)CN(C1CCc3ccc(Br)cc3C1)CC2 (stereo not drawn) [Example 27, 5-(7-bromo-1,2,3,4-tetrahydronaphthalen-2-yl)-2-(2-chlorophenyl)-4,5,6,7-tetrahydro-3H-imidazo[4,5-c]pyridine] | 0.1 to 0.49 µM | < 0.1 µM
Clc1ccc2c(c1)CC(N1CCc3nc(-c4ccccc4Br)[nH]c3C1)CC2 (stereo not drawn) [Example 28, 2-(2-bromophenyl)-5-(7-chloro-1,2,3,4-tetrahydronaphthalen-2-yl)-4,5,6,7-tetrahydro-3H-imidazo[4,5-c]pyridine] | 0.1 to 0.49 µM | 0.1 to 0.49 µM
Clc1ccc2c(c1)CC(N1CCc3nc(-c4ccc(Br)cc4Cl)[nH]c3C1)CC2 (stereo not drawn) [Example 29, 2-(4-bromo-2-chlorophenyl)-5-(7-chloro-1,2,3,4-tetrahydronaphthalen-2-yl)-4,5,6,7-tetrahydro-3H-imidazo[4,5-c]pyridine] | 0.5 to 0.99 µM | 0.1 to 0.49 µM
Clc1ccc2c(c1)CC(N1CCc3nc(-c4cc(Br)ccc4Cl)[nH]c3C1)CC2 (stereo not drawn) [Example 30, 2-(5-bromo-2-chlorophenyl)-5-(7-chloro-1,2,3,4-tetrahydronaphthalen-2-yl)-4,5,6,7-tetrahydro-3H-imidazo[4,5-c]pyridine] | 1 to 50 µM | 0.5 to 0.99 µM
Cc1cn(-c2ccc3c(c2)CCC(N2CCc4nc(-c5ccccc5Cl)[nH]c4C2)C3)cn1 (stereo not drawn) [Example 32, 2-(2-chlorophenyl)-5-(6-(4-methyl-1H-imidazol-1-yl)-1,2,3,4-tetrahydronaphthalen-2-yl)-4,5,6,7-tetrahydro-3H-imidazo[4,5-c]pyridine] | 1 to 50 µM | 1 to 50 µM
Clc1ccc2c(c1)CC(N1CCc3nc(-c4ccc(C5CC5)cc4Cl)[nH]c3C1)CC2 (stereo not drawn) [Example 37, 5-(7-chloro-1,2,3,4-tetrahydronaphthalen-2-yl)-2-(2-chloro-4-cyclopropylphenyl)-4,5,6,7-tetrahydro-3H-imidazo[4,5-c]pyridine] | < 0.1 µM | < 0.1 µM
Clc1cccc(-c2nc3c([nH]2)CN(C2CCc4ccc(Cl)cc4C2)CC3)c1 (stereo not drawn) [Example 42, 5-(7-chloro-1,2,3,4-tetrahydronaphthalen-2-yl)-2-(3-chlorophenyl)-4,5,6,7-tetrahydro-3H-imidazo[4,5-c]pyridine] | 1 to 50 µM | 1 to 50 µM
Clc1ccccc1-c1nc2c([nH]1)CN(C1Cc3ccccc31)CC2 (stereo not drawn) [Example 43, 5-(bicyclo[4.2.0]octa-1(6),2,4-trien-7-yl)-2-(2-chlorophenyl)-4,5,6,7-tetrahydro-3H-imidazo[4,5-c]pyridine] | > 30 µM | 1 to 50 µM
Fc1cccc(-c2nc3c([nH]2)CN(C2CCc4ccc(F)cc4C2)CC3)c1 (stereo not drawn) [Example 51, 5-(7-fluoro-1,2,3,4-tetrahydronaphthalen-2-yl)-2-(3-fluorophenyl)-4,5,6,7-tetrahydro-3H-imidazo[4,5-c]pyridine] | 1 to 50 µM | 1 to 50 µM
Fc1ccccc1-c1nc2c([nH]1)CN(C1CCc3ncccc3C1)CC2 (stereo not drawn) [Example 55, 6-(2-(2-fluorophenyl)-3,4,6,7-tetrahydro-5H-imidazo[4,5-c]pyridin-5-yl)-5,6,7,8-tetrahydroquinoline] | 1 to 50 µM | 1 to 50 µM
Fc1ccccc1-c1nc2c([nH]1)CN(C1CCc3cc(Cl)ccc3C1)CC2 (stereo not drawn) [Example 70, 5-(6-chloro-1,2,3,4-tetrahydronaphthalen-2-yl)-2-(2-fluorophenyl)-4,5,6,7-tetrahydro-3H-imidazo[4,5-c]pyridine] | 1 to 50 µM | 1 to 50 µM
Fc1cc2c(cc1F)CC(N1CCc3nc(-c4ccccc4F)[nH]c3C1)CC2 (stereo not drawn) [Example 72, 5-(6,7-difluoro-1,2,3,4-tetrahydronaphthalen-2-yl)-2-(2-fluorophenyl)-4,5,6,7-tetrahydro-3H-imidazo[4,5-c]pyridine] | 1 to 50 µM | 1 to 50 µM
Fc1cc(F)c2c(c1)CC(N1CCc3nc(-c4ccccc4F)[nH]c3C1)CC2 (stereo not drawn) [Example 73, 5-(5,7-difluoro-1,2,3,4-tetrahydronaphthalen-2-yl)-2-(2-fluorophenyl)-4,5,6,7-tetrahydro-3H-imidazo[4,5-c]pyridine] | > 30 µM | > 30 µM
Clc1cccnc1-c1nc2c([nH]1)CN(C1CCc3cccc(Cl)c3C1)CC2 (stereo not drawn) [Example 77, 5-(8-chloro-1,2,3,4-tetrahydronaphthalen-2-yl)-2-(3-chloropyridin-.2-yl)-4,5,6,7-tetrahydro-3H-imidazo[4,5-c]pyndine] | 1 to 50 µM | 1 to 50 µM
Clc1ccccc1-c1nc2c([nH]1)CN(C1CCc3cccc(Cl)c31)CC2 (stereo not drawn) [Example 106, 5-(7-chloro-2,3-dihydro-1H-inden-1-yl)-2-(2-chlorophenyl)-4,5,6,7-tetrahydro-3H-imidazo[4,5-c]pyridine] | 1 to 50 µM | 1 to 50 µM
Clc1ccccc1-c1nc2c([nH]1)CN(C1CCc3cc(Br)ccc3C1)CC2 (stereo not drawn) [Example 109, 5-(6-bromo-1,2,3,4-tetrahydronaphthalen-2-yl)-2-(2-chlorophenyl)-4,5,6,7-tetrahydro-3H-imidazo[4,5-c]pyridine] | 1 to 50 µM | 1 to 50 µM

Continued, values first:

IC50 [1] | IC50 [2] | SMILES
< 0.1 µM | 0.1 to 0.49 µM | Clc1ccccc1-c1nc2c([nH]1)CN(C1CCc3cccc(Br)c3C1)CC2 (stereo not drawn) [Example 26, 5-(8-bromo-1,2,3,4-tetrahydronaphthalen-2-yl)-2-(2-chlorophenyl)-4,5,6,7-tetrahydro-3H-imidazo[4,5-c]pyridine]
1 to 50 µM | 0.5 to 0.99 µM | Clc1ccccc1-c1nc2c([nH]1)CN(C1CCc3cc(C4CC4)ccc3C1)CC2 (stereo not drawn) [Example 31, 2-(2-chlorophenyl)-5-(6-cyclopropyl-1,2,3,4-tetrahydronaphthalen-2-yl)-4,5,6,7-tetrahydro-3H-imidazo[4,5-c]pyridine]
0.1 to 0.49 µM | 0.1 to 0.49 µM | Clc1ccccc1-c1nc2c([nH]1)CN(C1CCc3ccc(C4CC4)cc3C1)CC2 (stereo not drawn) [Example 34, 2-(2-chlorophenyl)-5-(7-cyclopropyl-1,2,3,4-tetrahydronaphthalen-2-yl)-4,5,6,7-tetrahydro-3H-imidazo[4,5-c]pyridine]
1 to 50 µM | 1 to 50 µM | Clc1ccccc1-c1nc2c([nH]1)CN(C1CCc3ccc(C#CC4CC4)cc3C1)CC2 (stereo not drawn) [Example 35, 2-(2-chlorophenyl)-5-(7-(cyclopropylethynyl)-1,2,3,4-tetrahydronaphthalen-2-yl)-4,5,6,7-tetrahydro-3H-imidazo[4,5-c]pyridine]
1 to 50 µM | 0.5 to 0.99 µM | Clc1ccccc1-c1nc2c([nH]1)CN(C1CCc3cccc(C4CC4)c3C1)CC2 (stereo not drawn) [Example 36, 2-(2-chlorophenyl)-5-(8-cyclopropyl-1,2,3,4-tetrahydronaphthalen-2-yl)-4,5,6,7-tetrahydro-3H-imidazo[4,5-c]pyridine]
1 to 50 µM | 1 to 50 µM | Clc1cccc2c1CC(N1CCc3nc(-c4ccccn4)[nH]c3C1)CC2 (stereo not drawn) [Example 78, 5-(8-chloro-1,2,3,4-tetrahydronaphthalen-2-yl)-2-(pyridin-2-yl)-4,5,6,7-tetrahydro-3H-imidazo[4,5-c]pyridine]
1 to 50 µM | 1 to 50 µM | COc1cccc2c1CC(N1CCc3nc(-c4ccccc4Cl)n(CCO)c3C1)CC2 (stereo not drawn) [Example 130, 2-(2-(2-chlorophenyl)-5-(8-methoxy-1,2,3,4-tetrahydronaphthalen-2-yl)-4,5,6,7-tetrahydro-3H-imidazo[4,5-c]pyridin-3-yl)ethan-1-ol]
0.1 to 0.49 µM | 0.1 to 0.49 µM | Cn1c(-c2ccccc2Cl)nc2c1CN(C1CCc3cccc(C4CC4)c3C1)CC2 (stereo not drawn) [Example 161, 2-(2-chlorophenyl)-5-(8-cyclopropyl-1,2,3,4-tetrahydronaphthalen-2-yl)-3-methyl-4,5,6,7-tetrahydro-3H-imidazo[4,5-c]pyridine]
